IC50 data for 25 compounds are collected here from the Kinase Knowledgebase extract (Sharma et al. 2016).

Among the targets are PIK3CA (human) (UniProt P42336); PIK3CB (Human) (UniProt P42338); PIK3CD (Human) (UniProt O00329); PIK3CG (human) (UniProt P48736).
Common to all, as to assay: Enzyme Assay

A value given as a limit tells only on which side of the number the result lay.

PIK3CB (Human), sequence (P42338 whole entry, looked up): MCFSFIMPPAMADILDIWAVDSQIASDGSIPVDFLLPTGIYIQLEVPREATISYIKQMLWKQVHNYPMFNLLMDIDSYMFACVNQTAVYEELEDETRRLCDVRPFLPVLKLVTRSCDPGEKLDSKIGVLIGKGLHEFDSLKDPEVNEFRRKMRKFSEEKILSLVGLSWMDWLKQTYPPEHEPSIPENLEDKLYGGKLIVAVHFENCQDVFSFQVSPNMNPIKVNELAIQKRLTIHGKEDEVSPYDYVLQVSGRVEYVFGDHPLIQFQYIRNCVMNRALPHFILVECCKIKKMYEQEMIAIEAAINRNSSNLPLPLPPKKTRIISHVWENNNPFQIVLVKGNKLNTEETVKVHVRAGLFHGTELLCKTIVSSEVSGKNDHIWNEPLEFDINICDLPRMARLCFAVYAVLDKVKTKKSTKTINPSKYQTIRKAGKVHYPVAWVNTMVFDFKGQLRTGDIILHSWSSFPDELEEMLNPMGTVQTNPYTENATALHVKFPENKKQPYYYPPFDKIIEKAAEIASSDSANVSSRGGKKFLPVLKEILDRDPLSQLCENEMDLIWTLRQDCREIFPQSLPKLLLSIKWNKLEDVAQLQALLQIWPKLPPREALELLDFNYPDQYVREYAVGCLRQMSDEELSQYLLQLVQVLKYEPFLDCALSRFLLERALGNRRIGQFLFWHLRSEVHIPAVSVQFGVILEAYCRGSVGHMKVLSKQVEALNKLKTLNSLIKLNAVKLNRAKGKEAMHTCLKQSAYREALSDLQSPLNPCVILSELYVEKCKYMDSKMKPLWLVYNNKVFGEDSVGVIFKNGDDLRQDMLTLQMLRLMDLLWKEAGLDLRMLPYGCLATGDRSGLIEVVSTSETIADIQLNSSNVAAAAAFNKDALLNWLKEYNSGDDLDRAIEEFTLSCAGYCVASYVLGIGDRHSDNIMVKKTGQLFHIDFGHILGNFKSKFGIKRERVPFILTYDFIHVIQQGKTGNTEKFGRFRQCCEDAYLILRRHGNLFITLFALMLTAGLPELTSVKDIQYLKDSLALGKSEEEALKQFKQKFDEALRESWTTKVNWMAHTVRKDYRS
PIK3CG (human), sequence (P48736 whole entry, looked up): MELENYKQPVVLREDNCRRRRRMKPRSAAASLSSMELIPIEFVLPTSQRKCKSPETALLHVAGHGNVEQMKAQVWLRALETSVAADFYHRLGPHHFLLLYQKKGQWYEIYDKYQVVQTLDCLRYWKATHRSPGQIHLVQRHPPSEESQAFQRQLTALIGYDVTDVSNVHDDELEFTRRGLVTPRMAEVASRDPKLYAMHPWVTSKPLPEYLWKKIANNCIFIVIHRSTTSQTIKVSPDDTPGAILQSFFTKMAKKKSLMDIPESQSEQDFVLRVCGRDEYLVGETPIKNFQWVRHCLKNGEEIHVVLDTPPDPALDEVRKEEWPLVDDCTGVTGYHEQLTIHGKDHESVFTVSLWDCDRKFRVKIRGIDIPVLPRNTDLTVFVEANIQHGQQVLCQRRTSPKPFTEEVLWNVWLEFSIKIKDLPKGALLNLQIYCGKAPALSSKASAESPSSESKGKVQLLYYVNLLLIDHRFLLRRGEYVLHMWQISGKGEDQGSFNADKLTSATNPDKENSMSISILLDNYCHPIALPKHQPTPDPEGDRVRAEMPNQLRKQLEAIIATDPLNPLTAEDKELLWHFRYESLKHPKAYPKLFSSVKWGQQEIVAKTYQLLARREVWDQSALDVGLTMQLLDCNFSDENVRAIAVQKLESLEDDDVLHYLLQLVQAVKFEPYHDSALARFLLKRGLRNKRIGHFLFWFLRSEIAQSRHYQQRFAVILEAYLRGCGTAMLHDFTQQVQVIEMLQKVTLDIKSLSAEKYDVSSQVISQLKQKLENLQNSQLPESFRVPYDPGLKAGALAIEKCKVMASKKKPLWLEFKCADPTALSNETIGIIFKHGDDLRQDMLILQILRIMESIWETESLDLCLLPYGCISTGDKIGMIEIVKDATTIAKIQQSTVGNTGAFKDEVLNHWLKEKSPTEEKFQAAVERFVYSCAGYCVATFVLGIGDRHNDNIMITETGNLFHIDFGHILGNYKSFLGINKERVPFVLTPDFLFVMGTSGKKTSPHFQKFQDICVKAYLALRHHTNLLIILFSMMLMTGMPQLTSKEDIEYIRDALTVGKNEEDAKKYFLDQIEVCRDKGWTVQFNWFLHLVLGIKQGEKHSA
PIK3CA (human), sequence (P42336 whole entry, looked up): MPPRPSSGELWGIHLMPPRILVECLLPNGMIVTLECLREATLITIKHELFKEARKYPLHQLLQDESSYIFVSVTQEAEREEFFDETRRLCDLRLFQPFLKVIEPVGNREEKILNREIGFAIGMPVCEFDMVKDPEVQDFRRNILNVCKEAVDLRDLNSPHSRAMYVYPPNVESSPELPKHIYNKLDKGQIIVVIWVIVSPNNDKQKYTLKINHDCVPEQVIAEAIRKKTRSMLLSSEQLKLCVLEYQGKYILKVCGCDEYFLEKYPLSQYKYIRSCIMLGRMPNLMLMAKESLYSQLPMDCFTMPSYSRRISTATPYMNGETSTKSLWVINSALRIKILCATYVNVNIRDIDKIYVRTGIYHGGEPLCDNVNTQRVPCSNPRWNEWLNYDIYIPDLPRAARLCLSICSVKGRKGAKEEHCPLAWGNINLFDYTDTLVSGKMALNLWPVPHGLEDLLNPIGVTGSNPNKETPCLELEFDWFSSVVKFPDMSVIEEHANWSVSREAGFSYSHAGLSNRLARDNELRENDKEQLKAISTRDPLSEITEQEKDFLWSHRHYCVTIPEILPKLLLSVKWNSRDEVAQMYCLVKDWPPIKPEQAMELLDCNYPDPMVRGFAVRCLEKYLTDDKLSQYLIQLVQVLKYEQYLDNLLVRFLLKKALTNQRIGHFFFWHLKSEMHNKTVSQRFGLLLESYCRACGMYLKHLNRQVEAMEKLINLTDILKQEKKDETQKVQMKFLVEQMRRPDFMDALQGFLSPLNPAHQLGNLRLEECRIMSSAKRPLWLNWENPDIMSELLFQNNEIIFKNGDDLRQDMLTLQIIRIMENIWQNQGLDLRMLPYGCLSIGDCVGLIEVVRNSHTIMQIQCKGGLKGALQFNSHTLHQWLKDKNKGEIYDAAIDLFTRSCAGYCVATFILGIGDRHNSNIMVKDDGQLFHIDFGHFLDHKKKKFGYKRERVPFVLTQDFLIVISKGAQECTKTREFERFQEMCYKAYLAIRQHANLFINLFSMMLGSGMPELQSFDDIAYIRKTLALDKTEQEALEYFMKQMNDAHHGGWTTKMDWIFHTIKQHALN
PIK3CD (Human), sequence (O00329 whole entry, looked up): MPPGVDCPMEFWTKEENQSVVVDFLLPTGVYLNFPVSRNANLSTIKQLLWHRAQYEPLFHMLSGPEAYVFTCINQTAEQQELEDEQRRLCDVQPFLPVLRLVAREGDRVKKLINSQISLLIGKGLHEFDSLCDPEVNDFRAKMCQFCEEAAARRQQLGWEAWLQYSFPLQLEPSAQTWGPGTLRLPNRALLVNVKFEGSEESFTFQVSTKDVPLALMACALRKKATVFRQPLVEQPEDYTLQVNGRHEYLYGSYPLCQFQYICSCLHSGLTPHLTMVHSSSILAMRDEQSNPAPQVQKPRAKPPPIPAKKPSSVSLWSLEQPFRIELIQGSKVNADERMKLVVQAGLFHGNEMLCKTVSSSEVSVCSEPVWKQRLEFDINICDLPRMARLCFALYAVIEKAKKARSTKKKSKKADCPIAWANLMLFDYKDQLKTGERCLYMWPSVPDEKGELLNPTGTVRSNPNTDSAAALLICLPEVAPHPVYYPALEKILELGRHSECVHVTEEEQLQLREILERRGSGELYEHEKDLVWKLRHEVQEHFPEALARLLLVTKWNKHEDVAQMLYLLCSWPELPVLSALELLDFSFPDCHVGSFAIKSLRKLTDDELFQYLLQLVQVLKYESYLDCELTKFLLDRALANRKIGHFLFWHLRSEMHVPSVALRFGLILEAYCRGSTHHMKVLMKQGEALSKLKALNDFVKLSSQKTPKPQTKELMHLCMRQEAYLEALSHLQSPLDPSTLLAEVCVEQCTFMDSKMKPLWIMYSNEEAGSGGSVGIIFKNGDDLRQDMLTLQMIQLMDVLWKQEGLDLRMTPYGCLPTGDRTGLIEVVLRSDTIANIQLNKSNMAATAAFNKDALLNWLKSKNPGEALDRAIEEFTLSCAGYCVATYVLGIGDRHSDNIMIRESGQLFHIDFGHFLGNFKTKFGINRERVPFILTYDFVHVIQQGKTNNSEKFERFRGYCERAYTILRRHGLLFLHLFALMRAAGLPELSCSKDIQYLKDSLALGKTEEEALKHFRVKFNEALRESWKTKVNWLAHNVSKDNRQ

As for `Cc1cccc2cc(Cn3nc(I)c4c(N)ncnc43)n(C3CCCCC3)c(=O)c12`, the IC50 is more than 10 µM at PIK3CA (human), more than 10 µM against PIK3CB (Human) and 0.1 to 1 µM against PIK3CD (Human).

For the compound `Cc1cccc2cc(C(C)Nc3ncnc4[nH]cnc34)n(C(C)C)c(=O)c12` (centres undefined), the IC50 on PIK3CG (human) is 0.1 to 1 µM; on PIK3CD (Human), less than 0.1 µM.

On to `Cc1cccc2cc(Cn3nc(-c4ccc(O)c(F)c4)c4c(N)ncnc43)n(-c3ccccc3F)c(=O)c12`, for which the figures for the IC50 on PIK3CA (human), against PIK3CB (Human) and on PIK3CD (Human) were more than 10 µM, more than 10 µM and 0.1 to 1 µM, respectively.

As for `Cc1cccc2cc([C@H](C)Nc3nc(N)nc4[nH]cnc34)n(-c3ccccc3)c(=O)c12`, the results for the IC50 at PIK3CA (human), on PIK3CB (Human) and against PIK3CD (Human) were 0.1 to 1 µM, less than 0.1 µM and less than 0.1 µM, respectively.

Consider `Cc1cccc2cc([C@H](C)Nc3ncnc4[nH]cc(C(N)=O)c34)n(-c3ccccc3)c(=O)c12`, for which the IC50 is 0.1 to 1 µM at PIK3CA (human), less than 0.1 µM against PIK3CB (Human) and less than 0.1 µM on PIK3CD (Human).

With `CC(=O)Nc1nc2ccc(-c3nn(Cc4cc5cccc(C)c5c(=O)n4-c4ccccc4C)c4ncnc(N)c34)cc2o1`, the results for the IC50 against PIK3CA (human), on PIK3CB (Human) and against PIK3CD (Human) were more than 10 µM, more than 10 µM and less than 0.1 µM, respectively.

On to `Cc1cccc2cc(Cn3nc(I)c4c(N)ncnc43)n(-c3ccccc3F)c(=O)c12`, for which the IC50 on PIK3CG (human) was in the range of 0.1 to 1 µM.

As for `Cc1cccc2cc(Cn3nc(C4=CCOCC4)c4c(N)ncnc43)n(-c3ccccc3)c(=O)c12`, the IC50 against PIK3CA (human), against PIK3CB (Human) and at PIK3CD (Human) was more than 10 µM in each case.

As to `Cc1ccccc1-n1c(Cn2nc(C#C[C@@H](C)O)c3c(N)ncnc32)cc2cccc(F)c2c1=O`, the IC50 on PIK3CA (human) was more than 10 µM; at PIK3CB (Human), more than 10 µM; against PIK3CD (Human), 0.1 to 1 µM.

`Cc1cccc2cc(Cn3nc(-c4cn[nH]c4)c4c(N)ncnc43)n(-c3ccccc3)c(=O)c12`: the results for the IC50 against PIK3CG (human) and against PIK3CD (Human) were 0.1 to 1 µM and less than 0.1 µM, respectively.

On to `Cc1cccc2cc(Cn3nc(-c4ccc5sc(N)nc5c4)c4c(N)ncnc43)n(-c3ccccc3)c(=O)c12`, for which the IC50 on PIK3CA (human) is 0.1 to 1 µM; on PIK3CB (Human), 0.1 to 1 µM; at PIK3CD (Human), less than 0.1 µM.

Regarding `Cc1cccc2cc([C@H](C)Nc3ncnc4[nH]cc(Br)c34)n(-c3ccccc3)c(=O)c12`, the IC50 on PIK3CA (human) is 0.1 to 1 µM; on PIK3CB (Human), less than 0.1 µM; against PIK3CD (Human) it was less than 0.1 µM.

Consider `CCC(Nc1ncnc2[nH]cnc12)c1cc2cccc(C)c2c(=O)n1C1CCC1` (centres undefined), for which the IC50 against PIK3CG (human) was 0.1 to 1 µM; on PIK3CA (human), more than 10 µM; against PIK3CD (Human), less than 0.1 µM.

For the compound `Cc1cccc2cc(Cn3nc(-c4ccc5oc(N)nc5c4)c4c(N)ncnc43)n(C3CC3)c(=O)c12`, the IC50 against PIK3CA (human) was less than 0.1 µM; at PIK3CB (Human), 0.1 to 1 µM; against PIK3CD (Human), less than 0.1 µM.

With `Cc1cccc2cc(Cn3nc(-c4cn[nH]c4)c4c(N)ncnc43)n(-c3ccccc3C(F)(F)F)c(=O)c12`, the concentration for half-maximal inhibition (IC50) on PIK3CG (human) is 0.1 to 1 µM; at PIK3CA (human), more than 10 µM; at PIK3CD (Human), less than 0.1 µM.

`Cc1cccc2cc([C@H](C)Nc3ncnc4[nH]cc(C(N)=O)c34)n(C3CC3)c(=O)c12`: the figures for the IC50 on PIK3CA (human), against PIK3CB (Human) and against PIK3CD (Human) were 0.1 to 1 µM, less than 0.1 µM and less than 0.1 µM, respectively.

Consider `Cc1cccnc1-n1c(Cn2nc(I)c3c(N)ncnc32)cc2cccc(C)c2c1=O`, for which the IC50 was 0.1 to 1 µM against PIK3CG (human), more than 10 µM against PIK3CA (human) and 0.1 to 1 µM against PIK3CD (Human).

For the compound `C=Cc1nn(Cc2cc3cccc(C)c3c(=O)n2-c2ccccc2)c2ncnc(N)c12`, the IC50 was 0.1 to 1 µM against PIK3CG (human) and less than 0.1 µM at PIK3CD (Human).

Consider `Cc1cccc2cc(Cn3nc(Cl)c4c(N)ncnc43)n(-c3ccccc3F)c(=O)c12`, for which the figures for the IC50 against PIK3CA (human), on PIK3CB (Human) and on PIK3CD (Human) were more than 10 µM, more than 10 µM and 0.1 to 1 µM, respectively.

On to `Cc1ccncc1-n1c(Cn2nc(I)c3c(N)ncnc32)cc2cccc(C)c2c1=O`, for which the IC50 is 0.1 to 1 µM against PIK3CG (human) and more than 10 µM at PIK3CB (Human).

`Cc1ccccc1-n1c(Cn2nc(-c3ccn[nH]3)c3c(N)ncnc32)cc2cccc(C)c2c1=O`: the IC50 was more than 10 µM at PIK3CA (human), more than 10 µM against PIK3CB (Human) and 0.1 to 1 µM against PIK3CD (Human).

As to `Cc1ccccc1-n1c(Cn2nc(-c3cn[nH]c3)c3c(N)ncnc32)cc2ccccc2c1=O`, the IC50 against PIK3CA (human) was more than 10 µM; against PIK3CB (Human) it was more than 10 µM; against PIK3CD (Human), 0.1 to 1 µM.

With `Cc1cccc2cc([C@H](C)Nc3ncnc4[nH]c(Cl)nc34)n(-c3ccccc3)c(=O)c12`, the IC50 against PIK3CA (human), at PIK3CB (Human) and against PIK3CD (Human) was more than 10 µM throughout.

With `Cc1cccc2cc([C@H](C)Nc3ncnc4[nH]cnc34)n(-c3cccc(F)c3)c(=O)c12`, the figures for the IC50 against PIK3CA (human), against PIK3CB (Human) and at PIK3CD (Human) were more than 10 µM, 0.1 to 1 µM and less than 0.1 µM, respectively.

Regarding `Cc1ccccc1-n1c(Cn2nc(C(=O)NO)c3c(N)ncnc32)cc2cccc(C)c2c1=O`, the IC50 is 0.1 to 1 µM on PIK3CG (human), more than 10 µM at PIK3CA (human) and 0.1 to 1 µM on PIK3CD (Human).
